Experimental data from patent US20140113093A1, “Polymers with reduced estrogenic activity” (SOLVAY SPECIALITY POLYMERS USA, LLC, priority 2011, published 2014).

biological target: T1, Estrogen receptor α (ERα) (Homo sapiens, UniProt P03372); assay: GeneBLAzer Cell-Based Nuclear Receptor Assay (beta-lactamase reporter), EC50 response value to ERα; conditions: ER-α-UAS-bla GripTite 293 cells, agonist mode, 16-24 hours at 37° C., monomers tested at 7 to 250000 nM
T1 construct: host or cells: ER-α-UAS-bla GripTite 293 cells
T1 sequence (P03372 311-547 limits assumed): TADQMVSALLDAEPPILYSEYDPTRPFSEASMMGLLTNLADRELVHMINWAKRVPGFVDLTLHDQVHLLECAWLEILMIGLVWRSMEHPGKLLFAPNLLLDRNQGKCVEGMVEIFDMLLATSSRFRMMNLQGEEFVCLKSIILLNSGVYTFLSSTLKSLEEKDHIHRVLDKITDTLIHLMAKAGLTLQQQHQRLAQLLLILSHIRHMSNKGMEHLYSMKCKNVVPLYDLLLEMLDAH
Description: The plate is incubated for 16-24 hours at 37° C./5% CO2 in a humidified incubator. […] The plate is read on a fluorescence plate reader.
The following equations are used for each set of data points: […]

| EC50 [µM] | SMILES |
| --- | --- |
| 4.14 | O=S(=O)(c1ccc(O)cc1)c1ccc(O)cc1 [Bisphenol S, 4,4′-dihydroxy-diphenylsulfone, reference compound] |
| > 79.1 | O=S(=O)(c1ccc(Oc2ccc(O)cc2)cc1)c1ccc(Oc2ccc(O)cc2)cc1 [Example 3 (HBS), Bis-4-hydroxyphenoxydiphenylsulfone] |
| > 79.1 | O=S(=O)(c1ccc(O)cc1)c1ccc(-c2ccc(S(=O)(=O)c3ccc(O)cc3)cc2)cc1 [Example 1 (HPS), Hydroxysulfonebiphenyl] |
| > 250 | O=P(c1ccccc1)(c1ccc(Oc2ccc(O)cc2)cc1)c1ccc(Oc2ccc(O)cc2)cc1 [Example 5 (HPPPO), Bis-4-hydroxyphenoxyphenylphosphine oxide] |

| SMILES | EC50 [µM] |
| --- | --- |
| CC(C)(c1ccc(O)cc1)c1ccc(C(C)(C)c2ccc(O)cc2)cc1 [BisP, α,α′-Bis(4-hydroxyphenyl)-1,4-diisopropylbenzene, reference compound] | > 25 |
